One test has as its target T1, RORγ-LBD (Homo sapiens, UniProt P51449).
T1 construct: made in house; host or cells: SF9 cells (baculovirus)
T1 sequence (P51449 269-508 limits assumed): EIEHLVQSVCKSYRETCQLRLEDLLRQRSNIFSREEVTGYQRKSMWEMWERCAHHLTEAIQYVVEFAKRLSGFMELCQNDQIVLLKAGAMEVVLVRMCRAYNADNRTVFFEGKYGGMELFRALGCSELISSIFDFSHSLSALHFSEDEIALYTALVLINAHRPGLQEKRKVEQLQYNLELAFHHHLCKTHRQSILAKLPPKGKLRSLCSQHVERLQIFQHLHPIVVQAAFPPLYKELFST
The experiment in a line: RORγ-Ligand Binding Domain (LBD) TR-FRET Assay.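 On TR-FRET Assay Max Response: 665/615 nm ratio relative to signal without ursolic acid or compound set at 100.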 Format: biochemical. The method, boiled down: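 His-tagged RORγ-LBD from SF9 baculovirus lysate, ~3 nM final, in 50 mM Tris pH 7.0, 50 mM KCl, 1 mM EDTA, 0.1 mM DTT, 0.01% BSA. Biotinylated SRC1 LXXLL peptide at 200 nM final with 2 μM ursolic acid; TR-FRET read-out, 1% DMSO final.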

Another test addresses T2, Gal4-RORγ-LBD (Homo sapiens, UniProt P51449).
T2 construct: expressed in transfected cells; host or cells: HEK-293 cells (pcDNA3.1neo plasmid)
T2 sequence (P51449 269-508 limits assumed): T1 sequence (P51449 269-508 limits assumed)
The experiment in a line: Gal4-RORγ Luciferase Reporter Assay in HEK-293T Cells. It is filed as cell-based. Conditions: HEK-293 cells. An outline of the steps: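 HEK-293 cells were transiently co-transfected with Gal4-RORγ-LBD and pGL4.31 Gal4-luciferase, with ursolic acid added at 2 μM final. Compounds were incubated overnight at 37° C. in 0.2% DMSO and luminescence read with One-Glo. Max Response is the upper plateau of a 4-parameter logistic fit, with signal lacking ursolic acid or compound set to 100.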
On the technique in general: Reporter assays use an easily measured gene product as a stand-in for the process of interest.

Setting [1] is: luciferase reporter, with 2 μM ursolic acid.

SMILES strings stand for the structures. pEC50: −log10 of the molar value. A value given as a limit tells only on which side of the number the result lay.

Take `O=C(NC[C@H]1CN(S(=O)(=O)c2cccc(C(F)(F)F)c2)c2cc(-c3cc(F)cc(OC(F)F)c3)ccc2O1)C1(F)CC1` [Compound 30DJ, (S)-N-((6-(3-(difluoromethoxy)-5-fluorophenyl)-4-((3-(trifluoro-methyl)phenyl)sulfonyl)-3,4-dihydro-2H-benzo[b][1,4]-oxazin-2-yl)methyl)-1-fluorocyclopropane-1-carboxamide]: at RORγ-LBD, the negative-log EC50 (pEC50) is over 6.30 and the “TR-FRET Assay Max Response” value was “*** (The symbol “***” indicates a value in the range of greater than 150 to 200)”. At Gal4-RORγ-LBD (2 μM ursolic acid), the pEC50 was 5.30 to 6.30 and the “Gal4-RORγ Assay Max Response” value is recorded as “* (The symbol “*” indicates a value in the range of 25 to 90)”.
In the case of `CC(C)(C[C@H]1CN(S(=O)(=O)c2cccc(C(F)(F)F)c2)c2cc(-c3cccc(OC(F)F)c3)ccc2O1)C(=O)O` [Compound 32G, (S)-3-(6-(3-(difluoromethoxy)-phenyl)-4-((3-(trifluoromethyl)-phenyl)sulfonyl)-3,4-dihydro-2H-benzo[b][1,4]oxazin-2-yl)-2,2-dimethylpropanoic acid], at RORγ-LBD, the pEC50 is over 6.30 and the “TR-FRET Assay Max Response” value is given as “*** (The symbol “***” indicates a value in the range of greater than 150 to 200)”. Besides, at Gal4-RORγ-LBD (setting [1]), the pEC50 is over 6.30 and the “Gal4-RORγ Assay Max Response” value was “** (The symbol “**” indicates a value in the range of greater than 90 to 150)”.
As to `O=C(O)CC[C@H]1CN(S(=O)(=O)c2cc(F)cc(C(F)(F)F)c2)c2cc(-c3cc(F)ccc3F)ccc2O1` [Compound 6J, (S)-3-(6-(2,5-difluorophenyl)-4-((3-fluoro-5-(trifluoromethyl)phenyl)-sulfonyl)-3,4-dihydro-2H-benzo[b][1,4]oxazin-2-yl)propanoic acid], on RORγ-LBD, the pEC50 is over 6.30 and the “TR-FRET Assay Max Response” value is listed as “*** (The symbol “***” indicates a value in the range of greater than 150 to 200)”. On Gal4-RORγ-LBD (setting [1]), the pEC50 is over 6.30 and the “Gal4-RORγ Assay Max Response” value is “** (The symbol “**” indicates a value in the range of greater than 90 to 150)”.
`CC(C)(F)C(=O)NC[C@H]1CN(S(=O)(=O)c2cccc(C(F)(F)F)c2)c2cc(-c3cc(F)cc(OC(F)F)c3)ccc2O1` [Compound 30DG, (S)-N-((6-(3-(difluoromethoxy)-5-fluorophenyl)-4-((3-(trifluoro-methyl)phenyl)sulfonyl)-3,4-dihydro-2H-benzo[b][1,4]-oxazin-2-yl)methyl)-2-fluoro-2-methylpropanamide]: on RORγ-LBD, the pEC50 was over 6.30 and the “TR-FRET Assay Max Response” value is on record as “*** (The symbol “***” indicates a value in the range of greater than 150 to 200)”. Further, at Gal4-RORγ-LBD (2 μM ursolic acid), the pEC50 was 5.30 to 6.30 and the “Gal4-RORγ Assay Max Response” value is “* (The symbol “*” indicates a value in the range of 25 to 90)”.
With `O=C(O)CC[C@H]1CN(S(=O)(=O)c2cccc(C(F)(F)F)c2)c2cc(-c3cccc4nccn34)ccc2O1` [Compound 4P, (S)-3-(6-(imidazo[1,2-a]pyridin-5-yl)-4-((3-(trifluoromethyl)-phenyl)sulfonyl)-3,4-dihydro-2H-benzo[b][1,4]oxazin-2-yl)propanoic acid], at RORγ-LBD, the pEC50 is over 6.30 and the “TR-FRET Assay Max Response” value was “** (The symbol “**” indicates a value in the range of greater than 90 to 150)”. At Gal4-RORγ-LBD (setting [1]), the pEC50 was 5.00 to 5.30 and the “Gal4-RORγ Assay Max Response” value is “** (The symbol “**” indicates a value in the range of greater than 90 to 150)”.
Turning to `O=C(O)C1(C[C@H]2CN(S(=O)(=O)c3cccc(C(F)(F)F)c3)c3cc(-c4cc(F)ccc4Cl)ccc3O2)CCOCC1` [Compound 78D, (S)-4-((6-(2-chloro-5-fluoro-phenyl)-4-((3-(trifluoromethyl)-phenyl)sulfonyl)-3,4-dihydro-2H-benzo[b][1,4]oxazin-2-yl)methyl)tetrahydro-2H-pyran-4-carboxylic acid], on RORγ-LBD, the pEC50 is over 6.30 and the “TR-FRET Assay Max Response” value is listed as “** (The symbol “**” indicates a value in the range of greater than 90 to 150)”. On Gal4-RORγ-LBD (2 μM ursolic acid), the pEC50 is over 6.30 and the “Gal4-RORγ Assay Max Response” value is recorded as “*** (The symbol “***” indicates a value in the range of greater than 150 to 200)”.
In the case of `C[C@H](C[C@H]1CN(S(=O)(=O)c2cccc(C(F)(F)F)c2)c2cc(-c3cccc(Cl)c3F)ccc2O1)C(=O)O` [Compound 46D, (R)-3-((S)-6-(3-chloro-2-fluoro-phenyl)-4-((3-(trifluoromethyl)-phenyl)sulfonyl)-3,4-dihydro-2H-benzo[b][1,4]oxazin-2-yl)-2-methylpropanoic acid], at RORγ-LBD, the negative logarithm of the EC50 (pEC50) was over 6.30 and the “TR-FRET Assay Max Response” value is on record as “*** (The symbol “***” indicates a value in the range of greater than 150 to 200)”. At Gal4-RORγ-LBD (2 μM ursolic acid), the pEC50 is over 6.30 and the “Gal4-RORγ Assay Max Response” value was “** (The symbol “**” indicates a value in the range of greater than 90 to 150)”.
As to `O=C(O)[C@H]1C[C@H](C[C@H]2CN(S(=O)(=O)c3cccc(C(F)(F)F)c3)c3cc(-c4cc(F)ccc4F)ccc3O2)C1` [Compound 60A, (1S,3r)-3-(((S)-6-(2,5-difluoro-phenyl)-4-((3-(trifluoromethyl)-phenyl)sulfonyl)-3,4-dihydro-2H-benzo[b][1,4]oxazin-2-yl)methyl)cyclobutane-1-carboxylic acid], on RORγ-LBD, the pEC50 was over 6.30 and the “TR-FRET Assay Max Response” value is recorded as “*** (The symbol “***” indicates a value in the range of greater than 150 to 200)”. Further, at Gal4-RORγ-LBD (2 μM ursolic acid), the pEC50 is over 6.30 and the “Gal4-RORγ Assay Max Response” value is given as “** (The symbol “**” indicates a value in the range of greater than 90 to 150)”.
As for `O=C(O)CC[C@H]1CN(S(=O)(=O)c2cccc(C(F)(F)F)c2)c2cc(-c3ccccc3O)ccc2O1` [Compound 2AW, (S)-3-(6-(2-hydroxyphenyl)-4-((3-(trifluoromethyl)phenyl)-sulfonyl)-3,4-dihydro-2H-benzo[b][1,4]oxazin-2-yl)propanoic acid], at RORγ-LBD, the pEC50 is over 6.30 and the “TR-FRET Assay Max Response” value is listed as “**** (The symbol “****” indicates a value greater than 200)”. For the same molecule, on Gal4-RORγ-LBD (setting [1]), the pEC50 was 5.30 to 6.30 and the “Gal4-RORγ Assay Max Response” value is “** (The symbol “**” indicates a value in the range of greater than 90 to 150)”.
For the molecule `COc1cccc(-c2ccc3c(c2)N(S(=O)(=O)c2cccc(C(F)(F)F)c2)C[C@H](CCNC(=O)C(C)(C)O)O3)c1` [Compound 30E, (S)-2-hydroxy-N-(2-(6-(3-methoxyphenyl)-4-((3-(trifluoromethyl)phenyl)sulfonyl)-3,4-dihydro-2H-benzo[6][1,4]oxazin-2-yl)ethyl)-2-methylpropanamide], at RORγ-LBD, the pEC50 was over 6.30 and the “TR-FRET Assay Max Response” value is listed as “**** (The symbol “****” indicates a value greater than 200)”. At Gal4-RORγ-LBD (setting [1]), the pEC50 is over 6.30 and the “Gal4-RORγ Assay Max Response” value was “** (The symbol “**” indicates a value in the range of greater than 90 to 150)”.
Consider `O=C(O)C1(C[C@H]2CN(S(=O)(=O)c3cccc(C(F)(F)F)c3)c3cc(-c4cc(F)cc(OC(F)F)c4)ccc3O2)CCOCC1` [Compound 58, (S)-4-((6-(3-(difluoromethoxy)-5-fluorophenyl)-4-((3-(trifluoromethyl)phenyl)sulfonyl)-3,4-dihydro-2H-benzo[b][1,4]oxazin-2-yl)methyl)tetrahydro-2H-pyran-4-carboxylic acid], for which, at RORγ-LBD, the pEC50 is over 6.30 and the “TR-FRET Assay Max Response” value was “*** (The symbol “***” indicates a value in the range of greater than 150 to 200)”. Besides, at Gal4-RORγ-LBD (2 μM ursolic acid), the pEC50 is over 6.30 and the “Gal4-RORγ Assay Max Response” value was “** (The symbol “**” indicates a value in the range of greater than 90 to 150)”.
Consider `COc1cc(S(=O)(=O)N2C[C@H](CCC(C)(C)C(=O)O)Oc3ccc(-c4cccc(C(F)(F)F)n4)cc32)ccc1F` [Compound 32AJ, (S)-4-(4-((4-fluoro-3-methoxy-phenyl)sulfonyl)-6-(6-(trifluoro-methyl)pyridin-2-yl)-3,4-dihydro-2H-benzo[b][1,4]oxazin-2-yl)-2,2-dimethylbutanoic acid], for which, on RORγ-LBD, the pEC50 is over 6.30 and the “TR-FRET Assay Max Response” value was “** (The symbol “**” indicates a value in the range of greater than 90 to 150)”. On Gal4-RORγ-LBD (2 μM ursolic acid), the pEC50 was over 6.30 and the “Gal4-RORγ Assay Max Response” value was “** (The symbol “**” indicates a value in the range of greater than 90 to 150)”.
Take `O=C(O)CC[C@H]1CN(S(=O)(=O)c2cccc(C(F)(F)F)c2)c2cc(-c3cnn4ccccc34)ccc2O1` [Compound 4O, (S)-3-(6-(pyrazolo[1,5-a]pyridin-3-yl)-4-((3-(trifluoromethyl)-phenyl)sulfonyl)-3,4-dihydro-2H-benzo[b][1,4]oxazin-2-yl)propanoic acid]: at RORγ-LBD, the negative-log EC50 (pEC50) was over 6.30 and the “TR-FRET Assay Max Response” value is given as “*** (The symbol “***” indicates a value in the range of greater than 150 to 200)”. For the same molecule, at Gal4-RORγ-LBD (setting [1]), the pEC50 is 5.30 to 6.30 and the “Gal4-RORγ Assay Max Response” value is listed as “** (The symbol “**” indicates a value in the range of greater than 90 to 150)”.

As a reminder, the pEC50 is −log10 of the EC50, conventionally taken in molar units. Read a high pEC50 as a small EC50.

(Values after patent US10611740B2, “Aryl dihydro-2H-benzo[b][1,4]oxazine sulfonamide and related compounds for use as agonists of RORγ and the treatment of disease” (Lycera Corporation, priority 2015, dated 2020).)
